# Where two headings read alike, the source gives them in different places.
# Tests used:
# [1] = tested on: deoxycorticosterone acetate (DOCA)/salt-induced model of FSGS; test: DOCA/salt-induced mouse model of FSGS: renoprotection, body weight, blood pressure, organ/body weight ratios; type: in vivo, mice (129/sv strain); conditions: DOCA/salt mice
# Protocol: 10-nitro-9(E)-octadec-9-enoic acid, given orally after onset of renal injury, was evaluated for efficacy in a model for Focal Segmental Glomerular Sclerosis (FSGS) in humans. […] Mice were uni-nephrectomized and, after two weeks, implanted subcutaneously with DOCA (50 mg, 21-day release) or placebo sustained release pellets, with pellet replacement 3 weeks later. All groups, except the sham control group, also received 1% NaCl in tap water. 10-nitro-9(E)-octadec-9-enoic acid (daily oral gavage, 2.5 or 12.5 mg/kg) or enalapril (20 mg/kg/day in drinking water) treatments began 2 weeks after the first DOCA implantation and continued for 4 weeks. Enalapril was included for comparison because it is used as standard of care for FSGS and this is a positive control for the model.
# (§1) Induction of model: Male mice (129/sv strain) were purchased from Taconic Labs. The animals were uninephrectomized (Unx) at 6 weeks of age by the vendor and shipped one week after surgery. At 2 weeks post Unx, a DOCA or placebo pellet (21-day release pellets, 50 mg/pellet, Innovative Research of America, Sarasota, Fla.) was implanted s.c. All mice were then placed on a semisynthetic diet which contained a moderate fat content and a low phytoestrogen/anti-oxidant level, which approximates a normal human diet (4). A second DOCA or placebo pellet was implanted three weeks later.
# (§2) Treatment: Mice were treated with placebo, 10-nitro-9(E)-octadec-9-enoic acid at a dose of 2.5 and 12.5 mg/kg, or enalapril (standard of care) for 4 weeks by oral gavage starting 2 weeks after the first DOCA implantation. One percent NaCl in tap water was given to each group except the sham control group. Body weight was measured weekly, and doses were readjusted based on the current body weight. Urine and blood samples were collected prior to treatment and at week 2 and 4 of treatment. Mice were terminated at week 4. Data is presented as the mean+SEM for the number of animals listed in each group.
# [2] = tested on: deoxycorticosterone acetate (DOCA)/salt-induced model of FSGS; test: DOCA salt study: RT-PCR analysis of kidney gene expression; type: in vivo, mice (129/sv strain); conditions: DOCA/salt mice kidney; for Nephrin gene expression / Podocin gene expression: normalized to 18S, fold changes to control group, mean ± SEM; for gene expression of MCP-1, osteopontin, collagen III, fibronectin and PAI-1 (mRNA, qRT-PCR): 4 weeks
# Protocol: as §1, §2
# RT-PCR Analysis of Gene Expression: A slice of kidney from each mouse was placed in Trizol solution (Invitrogen) immediately after harvesting and stored at −80° C. until analysis. Tissues were homogenized using a bead mill in 0.5 ml of Trizol solution and total RNA was extracted with chloroform (Sigma) and purified using standard RNeasy mini kit (Qiagen), with on column DNase 1 (Qiagen) digestion to avoid non-specific fluorescence emission derived from the recognition of contaminating genomic DNA by the probe, according to manufacturer's recommendation. RNA samples were eluted in 30 μl of nuclease-free water and quantified using a Nanodrop. cDNA was generated from 2 μg of RNA by using Clontech Sprint PowerScript reagents according to manufacturer's protocol. Fluorogenic probes specific for genes assayed in the report were purchased from Applied Biosystems. PCR amplification and analysis of PCR reaction were performed and monitored using an ABI Prism 7900HT Sequence Detection System (TaqMan, Perkin-Elmer Applied Biosystem). Data analysis was carried out by using the Sequence Detection Systems v2.3 program (Applied Biosystems). For each cDNA sample the Ct value of each target sequence was normalized to reference gene (Ribosomal RNA-18S), and shown as fold changes to control group. Statistical analyses for gene expression data was performed using a two-tailed Student's t-test.
# [3] = Multiple ascending dose study in obese males: pharmacokinetics; type: in vivo, human; conditions: for plasma concentration Day 21 / plasma concentration Day 28: after 14 days dosing; for Tmax: male, human, plasma, oral, 450 mg, read-out: Median Tmax
# Description: The primary endpoints of this study included safety and tolerability, pharmacokinetics, and biomarkers. The safety and tolerability included physical examinations, adverse event (AE) reporting, vital signs (blood pressure, heart rate, respiratory rate), clinical laboratory values (hematology, biochemistry, and urinalysis) including serum magnesium and creatine phosphokinase (CPK), 12-lead electrocardiograms (ECGs) for safety assessments and QTcF measured on ECGs extracted from cardiac Holter monitoring. The pharmacokinetic measurements included maximum observed plasma drug concentration (Cmax), time to maximum plasma drug concentration (Tmax), terminal phase half-life (t½), area under the plasma drug concentration versus time curve (AUC0-last, AUC0-∞), clearance (CL/F), volume of distribution (Vd/F) and terminal elimination rate constant (λz).
# This was a single-center, randomized, double-blind, placebo-controlled study of sequential multiple ascending doses of oral CXA-10 in obese male subjects. Eligible subjects included obese males age 19 to 57 years and BMI 27.0 to 39.5 kg/m^2. CXA-10 and placebo were provided as solutions in hard shell capsules. Three (3) cohorts of subjects were dosed once daily with CXA-10 for 14 days. The doses administered in this study were 25, 150 and 450 mg. Subjects enrolled in the highest dose level (450 mg) were administered 600 mg on day 1 then 450 mg for 13 days. This cohort (cohort 3) was given the option to receive an additional 450 mg dose on day 15 with a high fat (50%) breakfast.
# Subjects remained at the unit until discharge on Day 15 after assessments were completed and reviewed. […] They remained in the unit until Day 16 (24 h after last dose on Day 15) before being discharged from the unit. The additional procedures on Day 15 and Day 16 were optional for subjects in cohort 3.
# Full PK profiles were obtained on Days 1 and 14. For subjects in cohort 3 who participate in the additional procedures on Day 15, full PK profiles were obtained on Days 1, 14, and 15. An abbreviated PK profile could also be obtained for the highest dose cohort only on one additional day. The actual day of PK sampling coincided with the additional day of Holter monitoring for the highest dose cohort. Subjects returned on Day 21 and Day 28 for PK, safety, and biomarker assessments.
# [4] = molecular target: CYP450 3A4 (Homo sapiens, UniProt P08684); test: In vitro CYP450 evaluation; type: in vitro ADME
# [5] = tested on: adriamycin-induced nephropathy model; conditions: continually infused at disease onset; cited from earlier work
# [6] = tested on: db/db model; conditions: given by infusion; cited from earlier work
# [7] = cohort 3, day 15 with high fat (50%) breakfast versus fasted
# Sequence of CYP450 3A4 (P08684 whole entry, the tested form may be a part): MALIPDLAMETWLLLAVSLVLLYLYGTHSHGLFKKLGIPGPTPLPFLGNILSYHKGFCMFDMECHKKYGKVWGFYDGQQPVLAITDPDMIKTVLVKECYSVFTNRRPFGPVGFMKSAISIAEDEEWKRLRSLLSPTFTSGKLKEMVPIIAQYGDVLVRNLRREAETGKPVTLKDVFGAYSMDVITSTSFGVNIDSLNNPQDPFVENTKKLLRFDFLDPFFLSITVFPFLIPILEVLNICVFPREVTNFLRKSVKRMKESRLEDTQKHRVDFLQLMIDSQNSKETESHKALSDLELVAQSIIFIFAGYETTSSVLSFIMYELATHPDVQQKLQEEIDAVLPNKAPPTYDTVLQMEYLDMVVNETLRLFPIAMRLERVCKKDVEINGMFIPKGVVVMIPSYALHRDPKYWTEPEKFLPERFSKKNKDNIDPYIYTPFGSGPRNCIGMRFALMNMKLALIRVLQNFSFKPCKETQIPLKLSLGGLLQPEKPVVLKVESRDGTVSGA
smiles,measurement,setting,value
"CCCCCCCC/C(=C\CCCCCCCC(=O)O)[N+](=O)[O-] [CXA-10, 10-nitro-9(E)-octadec-9-enoic acid]",renal protector (renoprotective effect),[1]; 2.5 mg/kg/day oral gavage,highly effective as a renal protector
same,body weight gains,"[1]; 10-nitro-9(E)-octadec-9-enoic acid 2.5 or 12.5 mg/kg p.o. or enalapril 20 mg/kg/d, 4 weeks",unaffected
same,kidney/body weight and heart/body ratios,"[1]; low dose 2.5 mg/kg p.o. QD, 4 weeks",reduced
same,Nephrin gene expression,[2]; 2.5 mpk,1.264 ± 0.0789
same,Podocin gene expression,[2]; 2.5 mpk,1.077 ± 0.123
same,Nephrin gene expression,[2]; 12.5 mpk,1.313 ± 0.15
same,Podocin gene expression,[2]; 12.5 mpk,1.117 ± 0.084
same,"gene expression of MCP-1, osteopontin, collagen III, fibronectin and PAI-1 (mRNA, qRT-PCR)",[2]; high dose 12.5 mg/kg p.o. QD,neither the high dose 10-nitro-9(E)-octadec-9-enoic acid nor enalapril had an effect
same,"gene expression of MCP-1, osteopontin, collagen III, fibronectin and PAI-1 (mRNA, qRT-PCR)",[2]; low dose 2.5 mg/kg p.o. QD,inhibited these genes
same,plasma concentration Day 21,[3]; 25 mg cohort,0.17 ng/mL
same,plasma concentration Day 28,[3]; 25 mg cohort,0 ng/mL
same,plasma concentration Day 21,[3]; 150 mg cohort,0.33 ng/mL
same,plasma concentration Day 28,[3]; 150 mg cohort,(0.39 ng/mL
same,plasma concentration Day 21,[3]; 450 mg cohort,0.38 ng/mL
same,plasma concentration Day 28,[3]; 450 mg cohort,0.30 ng/mL
same,"pharmacokinetics profiles (dose proportionality, accumulation)","[3]; 25, 150, 450 mg once daily, day 1 and day 14",dose proportional concentration-times with minimal accumulation
same,increase of AUC under fed conditions,[3]; [7],about 1.7 fold
same,increase of Cmax under fed conditions,[3]; [7],about 2 fold
same,Tmax,[3]; fasted conditions,3 h
same,Tmax,[3]; fed conditions (high fat breakfast),6 h
same,IC50,[4],> 33 µM
same,podocyte number,[5],increase in podocyte number
same,podocyte number,[6],increase in podocyte number

# Source: patent US10537541B2, “Treatment of focal segmental glomerular sclerosis (FSGS) using therapeutically effective oral doses of 10-nitro-9(E)-octadec-9-enoic acid” (Complexa, Inc., priority 2015, dated 2020)
